According to US20250340616A1, “NOVEL PEPTIDE MIMICS AND THEIR USE” (STIFTELSEN VECTIS, priority 2021, published 2025):
Where no end group is shown, it is not given here. [ ]: non-standard residue; d: D form. Cit = NC(=O)NCCC[C@H](N)C(=O)O

System: TCR specific for the citrullinated fibrinogen peptide
Experiment: activation of 58−/− T cell line expressing cit-fib specific TCR by peptide-loaded HLA-DRB1*04:01 monomers (NFAT-GFP reporter, PD1 expression)
Type: cell-based, human
Conditions: peptide presented on HLA-DRB1*04:01, 48 h; for TCR-dependent NFAT mediated activation of T cells: GFP reporter, FIG. 3; for TCR-dependent PD1 expression: anti-mouse PD-1 staining, FIG. 4
Procedure: 58−/− cell line expressing cit-fib specific TCRs in ametrine expressing vector, along with co-expression of human CD4 and GFP as a reporter for NFAT expression.
HLA-DRB1*04:01 monomeric protein (500 μg/mL) was incubated for 72 h at 37° C. with different versions of fib69-81 peptide (test) and VimX71 peptide (control) in sodium phosphate buffer (1×) containing n-octyl β-D-Glucopyranoside (Sigma-Aldrich, USA) and Pefabloc SC (Sigma-Aldrich, USA), and then stored at 4° C. until used. Loaded HLA monomers were subsequently coated (0.03-2 μg/well) onto 48-well plates in 100 μl PBS for 4 h at 37° C. The HLA/peptide solution was subsequently flicked of the plate and specific T cells (5×104) and anti-CD28 (1 μg/well) were added to the monomer-coated wells and incubated for 48 h at 37° C. before collecting cells.
As positive controls, anti-mouse anti-CD3 (BioLegend #100314), anti-CD28 (BioLegend #101112) were used.
PD1 expression on 58−/− cells was assessed using anti-mouse PD-1 PE-Cy7 antibody, while NFAT activation was studied using assessment of GFP expression following cell stimulation. Human CD4+ametrine+ viable singlets were used as population to look for expression of NFAT and PD1.

Sequence | TCR-dependent NFAT mediated activation of T cells | TCR-dependent PD1 expression
GGFRAXPAKAAAT (GGFRA[Cit]PAKAAAT; ends and bridges not checked) [FibF71X74] | equally capable of triggering T cell activation as the original citrullinated peptide | equally capable of triggering T cell activation as the original citrullinated peptide
GGFRAQPAKAAAT [FibF71Q74, fibrinogen 69-81 mimic, glutamine in position 74 and phenylalanine in position 71] | equally capable of triggering T cell activation as the original citrullinated peptide | equally capable of triggering T cell activation as the original citrullinated peptide
GGYRAQPAKAAAT [FibQ74, fibrinogen 69-81 mimic, a glutamine in position 74] | equally capable of triggering T cell activation as the original citrullinated peptide | equally capable of triggering T cell activation as the original citrullinated peptide
